Assay results published in PMC6186498 (Toxicology, 2018).
Where two headings read alike, the source gives them in different places.

How the values were obtained:
[1] = tested on: kidney; settings: cited from earlier work
[2] = cited from earlier work
[3] = human, cited from earlier work
[4] = cited from earlier work; remark: listed apart in the source
[5] = cited from earlier work; remark: listed apart in the source
[6] = 100 mg/kg oral, PBPK model estimate, ref Chiu et al 2011
[7] = 10 ppm inhalation, PBPK model estimate, ref Chiu et al 2011
[8] = 100 mg/kg oral, mice, PBPK model estimate, ref Chiu et al 2011
[9] = 300 mg/kg oral, mice C57BL/6J, M, ref Cichocki et al 2017
[10] = 10 ppm inhalation, mice, PBPK model estimate, ref Chiu et al 2011
[11] = mean ± SD, average of all strains, single oral dose 6 mmole/kg
[12] = 100 mg/kg oral, rat, PBPK model estimate, ref Chiu et al 2011
[13] = 10 ppm inhalation, rat, PBPK model estimate, ref Chiu et al 2011

N[C@@H](CSC(Cl)=C(Cl)Cl)C(=O)O [TCVC, S-(1,2,2-trichlorovinyl)-L-cysteine]
doses at which most studies reported kidney effects ([1]; directly administered cysteine conjugates, acute, sub-acute and sub-chronic exposure, ref Birner et al. 1997, Shirai et al. 2012, Vaidya et al. 2003): above 10 mg/kg | comparative nephrotoxicity of TCVC and DCVC ([1]; equimolar doses compared, ref Birner et al. 1997): more nephrotoxic than DCVC

ClC(Cl)=C(Cl)Cl [PCE, tetrachloroethylene]
carcinogenicity classification by IARC ([2]; ref Guha et al. 2012): probably carcinogenic to humans | carcinogenicity classification by US EPA ([2]; ref U.S. EPA 2011a, b): likely to be a human carcinogen | GSH conjugation (%) [3, 6]: 18% | Oxidation to GSH [3, 6]: 0.1 | TCA (%), percentage of administered dose excreted in urine [3, 6]: 1.8% | TCA (%), percentage of administered dose excreted in urine ([3]; 1 ppm inhalation, M, ref Chiu et al 2006): 0.2–0.8% | Oxidation to GSH ([3]; 10 ppm inhalation, M&F, ref Volkel et al 1998): 107.7 | GSH conjugation (%) [3, 7]: 9.4% | Oxidation to GSH [3, 7]: 0.1 | TCA (%), percentage of administered dose excreted in urine [3, 7]: 0.98% | Oxidation to GSH ([3]; 20 ppm inhalation, M&F, ref Volkel et al 1998): 89.1 | Oxidation to GSH ([3]; 40 ppm inhalation, M&F, ref Volkel et al 1998): 96.3 | TCA (%), percentage of administered dose excreted in urine ([3]; 72 ppm inhalation, M, ref Monster 1979): 2% | GSH conjugation (%) [4, 8]: 0.07% | Oxidation to GSH [4, 8]: 500 | TCA (%), percentage of administered dose excreted in urine [4, 8]: 35% | GSH conjugation (%) [4, 9]: 0.79% | Oxidation to GSH [4, 9]: 7.5 | TCA (%), percentage of administered dose excreted in urine [4, 9]: 5.9% | GSH conjugation (%) [4, 10]: 0.02% | Oxidation to GSH [4, 10]: 600 | TCA (%), percentage of administered dose excreted in urine [4, 10]: 12% | inter-strain variability of TCA levels in liver, GSD ([4]; Collaborative Cross mouse population, single oral dose of PCE, ref Cichocki et al. 2017b): 1.64 | exhalation fraction of PCE ([4]; mice orally dosed with 500 mg/kg 14C-labelled PCE, ref Schumann et al. 1980): 82.6% | flux through oxidation metabolism pathway over that through conjugation (across all mouse strains examined): 26–34 fold | overall flux of glutathione conjugation expressed as dose (after equimolar treatment of TCE or PCE): 2.9 to 4.5 mg/kg | First order rate constant, Elimination T/PCE→ [11]: 0.17 ± 0.04 h⁻¹ | First order rate constant, GSH conjugation T/PCE→D/TCVG [11]: (460±230)*10^−6 h^−1 | First order rate constant, Oxidation T/PCE→TCA [11]: 0.014 ± 0.003 h⁻¹ | yield through glutathione conjugation pathway as % of that through oxidative pathway (range given for TCE and PCE together, approximately): 0.033%−3.3 | portion of the parent compound that undergoes metabolism (range over strains): 6.6%–9.7 | estimated fraction of the reactive species formation from cysteine conjugates (range over strains, model estimate): 46.7% to 52.6 | fraction of the total administered dose remaining unmetabolized until excretion (range over strains, model estimate at steady state): 90.3% to 93.5 | GSH conjugation (%) [5, 12]: 0.6% | Oxidation to GSH [5, 12]: 14.8 | TCA (%), percentage of administered dose excreted in urine [5, 12]: 8.9% | Oxidation to GSH ([5]; 10 ppm inhalation, rat Wistar, M&F, ref Volkel et al 1998): 623.6 | GSH conjugation (%) [5, 13]: 0.2% | Oxidation to GSH [5, 13]: 19.5 | TCA (%), percentage of administered dose excreted in urine [5, 13]: 3.9% | Oxidation to GSH ([5]; 20 ppm inhalation, rat Wistar, M&F, ref Volkel et al 1998): 540.6 | Oxidation to GSH ([5]; 40 ppm inhalation, rat Wistar, M&F, ref Volkel et al 1998): 316.4

N[C@@H](CSC(Cl)=CCl)C(=O)O [DCVC, S-(1,2-dichlorovinyl)-cysteine]
lowest dose with some adverse kidney effects observable ([1]; ref Shirai et al. 2012): 1 mg/kg

OCC(Cl)(Cl)Cl [TCOH, trichloroethanol]
AUC0–36 of TCOH compared to that of TCA, brain (TCE-treated mice, brain): 22.7–53.1% | AUC0–36 of TCOH compared to that of TCA, kidney (TCE-treated mice, kidney): 266–322% | tissue in which TCOH is most abundant (TCE-treated mice, liver, kidney, brain, lung, serum examined): most abundant in kidney | AUC0–36 of TCOH compared to that of TCA, lung (TCE-treated mice, lung): 49.8–68.7% | AUC0–36 of TCOH compared to that of TCA, serum (TCE-treated mice, serum): 35.7–60%
